Data: patent US8541363B2, “Pyruvamide compounds as inhibitors of dust mite group 1 peptidase allergen and their use” (St George's Hosptial Medical School, priority 2010, dated 2013)
Like-named read-outs stand apart in the source and are kept apart here.

Molecular target: Der p 1 (Dermatophagoides pteronyssinus (European house dust mite), UniProt P08176)
Experiment: Der p 1 enzyme activity assay (FRET fluorogenic substrate)
Format: biochemical
Procedure: The fluorogenic substrate used for measuring Der p 1 proteolytic activity was 2-aminobenzoylvalylalanylnorleucylseryl-(3-nitro)tyrosinyl aspartamide.
Test compounds were dissolved in dry DMSO and maintained at 4° C. as stock solutions until being diluted for use in screening assays. Final concentration of DMSO in all enzymatic assays was 0.5% v/v.
Reaction mixtures were assembled in a 96-well plate format (Perkin Elmer Optiplate 96F, Perkin Elmer LAS, Seer Green, Buckinghamshire, UK) using a Perkin Elmer MultiPROBE II Plus HTS EX robot with Gripper attachment. […] Dithiothreitol (DTT, 10 μL/well, 1 mM final concentration) was then added together with 10 μL of Der p 1 dissolved at 2.5 μg/mL in reaction buffer supplemented with 1 mM DTT. […] The plate was immediately transferred to a fluorescence plate reader (Perkin Elmer Fusion Alpha-FP or Perkin Elmer Envision) equipped with a temperature-controlled carrier set at 30° C. and the reaction followed by excitation/emission at 330/420 nm.
Inhibitory activity was analysed from progress curves of reactions in the presence of a range of inhibitor concentrations.
Initial velocity in each well was converted to fractional activity by Equation 1: Fractional activity=(Initial rate at inhibitor concentration[X]/Initial rate at inhibitor concentration zero)*100 Equation 1:
Then, IC50 was determined by fitting the data of fractional activity and inhibitor concentration to a 4-parameter logistic curve, using Equation 2: V=Vmin+[Vmax−Vmin]/[1+(X/IC50)Hillslope] […] Biological Data—Der p 1 Enzyme Assay

[1] = threshold stated in text, read-out: Der p 1 IC50

Chain of Der p 1 (P08176 99-320): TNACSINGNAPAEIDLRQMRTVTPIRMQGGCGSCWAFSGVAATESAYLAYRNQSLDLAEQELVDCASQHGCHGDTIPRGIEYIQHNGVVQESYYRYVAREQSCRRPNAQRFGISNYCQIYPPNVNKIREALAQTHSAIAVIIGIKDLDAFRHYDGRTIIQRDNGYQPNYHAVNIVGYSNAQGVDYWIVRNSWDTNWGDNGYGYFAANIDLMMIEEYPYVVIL

| Structure (SMILES) | IC50 [1] [nM] | further results |
| --- | --- | --- |
| CC(C)[C@H](NC(=O)[C@H](C)NC(=O)C1CCCN1C(=O)c1ccccc1)C(=O)C(=O)NC1CCCCC1 (some centres unmarked) [PVA-101] | < 200 |  |
| CC(C)[C@H](NC(=O)[C@H](C)NC(=O)[C@@H](NC(=O)c1ccccc1)C(C)(C)C)C(=O)C(=O)NCC(=O)N1CCC(N(C)C)C1 (some centres unmarked) [PVA-105] | < 20 |  |
| CC(C)[C@H](NC(=O)[C@H](C)NC(=O)[C@H](Cc1ccccc1)NC(=O)c1ccccc1)C(=O)C(=O)NC1CCOCC1 [PVA-044] | < 200 |  |
| CC(C)[C@H](NC(=O)[C@H](C)NC(=O)[C@@H](Cc1ccc(-c2ccccc2)cc1)NC(=O)c1ccccc1)C(=O)C(=O)NCc1ccccc1 [PVA-033] | < 200 |  |
| CCCC[C@H](NC(=O)[C@H](C)NC(=O)[C@@H](NC(=O)c1ccccc1)C(C)(C)C)C(=O)C(=O)NC1CCCCC1 [PVA-037] | < 20 | IC50 (Table 1, read-out: Der p 1 IC50): 7.85 nM |
| CC(C)[C@H](NC(=O)[C@H](C)NC(=O)[C@H](Cc1ccccc1)NC(=O)c1ccccc1)C(=O)C(=O)NCC(=O)N1CCN(C)CC1 [PVA-047] |  | IC50 (Der p 1 IC50): < 20 nM |
| CC(C)C(NC(=O)[C@H](C)NC(=O)[C@H](Cc1ccccc1)NC(=O)c1ccccc1)C(=O)C(=O)NCc1ccncc1 (some centres unmarked) [PVA-022] | < 200 |  |
| CC(C)[C@H](NC(=O)[C@H](C)NC(=O)[C@@H](Cc1ccc(F)cc1)NC(=O)c1ccccc1)C(=O)C(=O)NCc1ccccc1 [PVA-045] | < 200 |  |
| CC(C)[C@H](NC(=O)[C@H](C)NC(=O)[C@@H](Cc1cccc(F)c1)NC(=O)c1ccccc1)C(=O)C(=O)NC1CCCCC1 [PVA-031] | < 200 |  |
| CC(C)[C@H](NC(=O)[C@H](C)NC(=O)[C@@H](NC(=O)c1cc[nH]c(=O)c1)C(C)(C)C)C(=O)C(=O)NCc1ccccc1 [PVA-114] | < 200 |  |
| CC(C)[C@H](NC(=O)[C@H](C)NC(=O)[C@H](Cc1cccc2ccccc12)NC(=O)c1ccccc1)C(=O)C(=O)NCC(=O)N1CCN(C)CC1 [PVA-137] | < 20 |  |
| CC(C)[C@H](NC(=O)[C@H](C)NC(=O)[C@@H](NC(=O)c1ccccc1)C(C)(C)C)C(=O)C(=O)N[C@@H]1CCc2ccccc21 [PVA-109] | < 200 |  |
| CCCC[C@H](NC(=O)[C@H](C)NC(=O)[C@@H](Cc1ccccc1)NC(=O)c1ccc(N2CCN(C)CC2)cc1)C(=O)C(=O)NC1CCCCC1 [PVA-043] | < 2000 |  |
| CC(C)NC(=O)C(=O)[C@@H](NC(=O)[C@H](C)NC(=O)[C@H](Cc1ccccc1)NC(=O)c1ccccc1)C(C)C [PVA-015] | < 200 |  |
| CCCCC(NC(=O)[C@H](C)NC(=O)[C@H](Cc1ccccc1)NC(=O)c1ccccc1)C(=O)C(=O)NCc1ccncc1 (some centres unmarked) [PVA-040] | < 2000 |  |
| CNS(=O)(=O)c1ccc(CNC(=O)C(=O)[C@@H](NC(=O)[C@H](C)NC(=O)[C@@H](N2Cc3ccccc3C2=O)C(C)(C)C)C(C)C)cc1 [PVA-208] |  | IC50 (Der p 1 IC50): < 20 nM |
| CC(C)[C@H](NC(=O)[C@H](C)NC(=O)[C@@H](NC(=O)c1ccccc1)C(C)(C)C)C(=O)C(=O)N[C@H](C(=O)N1CCN(C)CC1)C(C)C [PVA-127] | < 200 |  |
| CC(C)[C@H](NC(=O)[C@H](C)NC(=O)[C@@H](NC(=O)C1CCN(C)CC1)C(C)(C)C)C(=O)C(=O)NC1CCCCC1 [PVA-089] | < 200 |  |

The next lines start with results.

| IC50 [1] [nM] | Structure (SMILES) | further results |
| --- | --- | --- |
| < 200 | CC(C)[C@H](NC(=O)[C@H](C)NC(=O)[C@@H](NC(=O)c1ccccc1)C(C)(C)C)C(=O)C(=O)NCc1ccccc1Cl [PVA-193] |  |
| < 20 | CC(C)[C@H](NC(=O)[C@H](C)NC(=O)[C@@H](NC(=O)c1ccnc2ccccc12)C(C)(C)C)C(=O)C(=O)NCC(=O)N1CCN(C(C)C)CC1 [PVA-187] |  |
| < 200 | Cc1cc(C(=O)N[C@H](C(=O)N[C@@H](C)C(=O)N[C@H](C(=O)C(N)=O)C(C)C)C(C)(C)C)[nH]n1 [PVA-148] |  |
| < 200 | CC(C)[C@H](NC(=O)[C@H](C)NC(=O)[C@H](Cc1ccccc1)NC(=O)c1ccncc1)C(=O)C(=O)NCC1CCN(C)CC1 [PVA-170] |  |
| < 20 | CC(C)[C@H](NC(=O)[C@H](C)NC(=O)[C@@H](NC(=O)c1ccccc1)C(C)(C)C)C(=O)C(=O)N[C@H](C)c1ccccc1 [PVA-132] |  |
| < 200 | CC(C)[C@H](NC(=O)[C@H](C)NC(=O)[C@H](Cc1ccccc1C(F)(F)F)NC(=O)c1ccncc1)C(=O)C(=O)NCc1ccccc1 [PVA-152] |  |
| < 20 | CC(C)[C@H](NC(=O)[C@H](C)NC(=O)[C@H](Cc1ccccc1)NC(=O)c1ccncc1)C(=O)C(=O)NCc1cccc(C(N)=O)c1 [PVA-169] |  |
| < 200 | CC(C)[C@H](NC(=O)[C@H](C)NC(=O)C1CCCN1C(=O)c1ccccc1)C(=O)C(=O)NCC(=O)N1CCN(C)CC1 (some centres unmarked) [PVA-145] |  |
| < 200 | Cc1cc(CNC(=O)C(=O)[C@@H](NC(=O)[C@H](C)NC(=O)[C@@H](NC(=O)c2ccccc2)C(C)(C)C)C(C)C)n(C)n1 [PVA-168] |  |
| < 200 | CC(C)[C@H](NC(=O)[C@H](C)NC(=O)[C@@H](NC(=O)c1ccccc1)C(C)(C)C)C(=O)C(=O)NCc1ccc(CN2CCCCC2)cc1 [PVA-165] |  |
| < 20 | Cc1ccccc1C[C@H](NC(=O)c1ccncc1)C(=O)N[C@@H](C)C(=O)N[C@H](C(=O)C(=O)NCc1ccccc1)C(C)C [PVA-151] |  |
| < 20 | CC(C)[C@H](NC(=O)[C@H](C)NC(=O)[C@@H](NC(=O)c1ccccc1)C(C)(C)C)C(=O)C(=O)NC1CC1 [PVA-116] |  |
| < 20 | CC(C)[C@H](NC(=O)[C@H](C)NC(=O)[C@@H](NC(=O)c1ccccc1)C(C)(C)C)C(=O)C(=O)NCc1ccc(S(N)(=O)=O)cc1 [PVA-135] |  |
| < 20 | CC(C)[C@H](NC(=O)[C@H](C)NC(=O)[C@@H](NC(=O)c1ccnc2ccccc12)C(C)(C)C)C(=O)C(=O)NC1CC1 [PVA-144] |  |
| < 200 | CC(C)[C@H](NC(=O)[C@H](C)NC(=O)[C@@H](NC(=O)c1ccccc1)C(C)(C)c1ccccc1)C(=O)C(=O)NC1CC1 [PVA-142] |  |
| < 200 | CC(C)[C@H](NC(=O)[C@H](C)NC(=O)[C@@H](NC(=O)c1ccccc1)C(C)(C)C)C(=O)C(=O)NCc1ccnn1C [PVA-167] |  |
| < 20 | CC(C)[C@H](NC(=O)[C@H](C)NC(=O)[C@@H](NC(=O)c1cccc2[nH]ncc12)C(C)(C)C)C(=O)C(=O)NCc1ccccc1 [PVA-149] |  |
| < 200 | CC(C)[C@H](NC(=O)[C@H](C)NC(=O)[C@@H](NC(=O)c1ccccc1)C(C)(C)C)C(=O)C(=O)NCc1ccc(Cl)cc1 [PVA-179] |  |
| < 20 | Cc1ccc(CNC(=O)C(=O)[C@@H](NC(=O)[C@H](C)NC(=O)[C@@H](NC(=O)c2ccccc2)C(C)(C)C)C(C)C)cc1 [PVA-205] |  |
| < 20 | CC(C)[C@H](NC(=O)[C@H](C)NC(=O)[C@@H](N1Cc2ccccc2C1=O)C(C)(C)C)C(=O)C(=O)NCc1ccc(C(N)=O)cc1 [PVA-207] |  |
| < 20 | CC(C)[C@H](NC(=O)[C@H](C)NC(=O)[C@@H](NC(=O)c1ccccc1)C(C)(C)C)C(=O)C(N)=O [PVA-118] |  |
| < 20 | CC(C)[C@H](NC(=O)[C@H](C)NC(=O)[C@@H](NC(=O)c1ccccc1)C(C)(C)C)C(=O)C(=O)NCc1ccc(CN(C)C)cc1 [PVA-164] |  |
| < 200 | COc1cccc(CNC(=O)C(=O)[C@@H](NC(=O)[C@H](C)NC(=O)[C@H](Cc2ccccc2)NC(=O)c2ccncc2)C(C)C)c1 [PVA-160] |  |
| < 20 | CC(C)[C@H](NC(=O)[C@H](C)NC(=O)[C@@H](NC(=O)c1ccnc2ccccc12)C(C)(C)C)C(=O)C(=O)NCc1ccc(S(N)(=O)=O)cc1 [PVA-185] |  |
| < 200 | CC(C)[C@H](NC(=O)[C@H](C)NC(=O)[C@H](Cc1ccccc1)NC(=O)c1ccncc1)C(=O)C(=O)NCc1cccc(S(N)(=O)=O)c1 [PVA-171] |  |
